Data: patent USRE50082E1, “(5,6-dihydro)pyrimido[4,5-e]indolizines” (NETHERLANDS TRANSLATIONAL RESEARCH CENTER B.V., priority 2014, dated 2024)
Where two headings read alike, the source gives them in different places.

Tests used:
[1] = tested on: MOLT-4 cancer cell line; test: Cell proliferation assay, MOLT-4 cancer cell line (ATPlite); format: cell-based; conditions: Homo sapiens;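 further: luminescence read-out, percent growth versus compound-free DMSO wells as maximum growth, start-of-incubation signal separating growth from cell death, IC50 from logistic curve fit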
[2] = target: T1, Aurora A (Homo sapiens, UniProt O14965); test: Biochemical Aurora A kinase assay (LANCE Ultra TR-FRET); conditions: for AurA Selectivity: IC50 AurA/IC50 TTK (biochemical assays); for IC50: full-length Aurora A, 2 μM ATP
T1 construct: full-length Aurora A enzyme (Carna Biosciences, cat. no. 05-101); purchased Carna Biosciences 05-101
T1 sequence (O14965 1-403): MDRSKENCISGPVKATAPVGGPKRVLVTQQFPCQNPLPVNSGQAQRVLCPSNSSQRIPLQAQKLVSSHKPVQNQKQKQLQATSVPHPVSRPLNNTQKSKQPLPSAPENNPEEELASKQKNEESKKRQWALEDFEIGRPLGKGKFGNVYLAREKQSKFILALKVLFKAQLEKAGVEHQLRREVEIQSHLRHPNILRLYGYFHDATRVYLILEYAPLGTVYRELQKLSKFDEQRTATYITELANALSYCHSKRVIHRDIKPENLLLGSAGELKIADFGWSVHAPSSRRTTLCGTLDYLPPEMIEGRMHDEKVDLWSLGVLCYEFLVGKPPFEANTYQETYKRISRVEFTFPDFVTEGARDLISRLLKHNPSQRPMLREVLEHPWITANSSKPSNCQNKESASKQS
Protocol: To determine the inhibitory activity of the compounds on Aurora A, the LANCE® Ultra TR-FRET assay (Perkin Elmer) was used. […] After 2 hours, the reaction was stopped by the addition of 5 μl 100 mM EDTA. […] Time-resolved fluorescence was measured on an Envision multilabel reader (Perkin Elmer, Waltham, Mass., USA). IC50 were calculated using XLfit™5 software (ID Business Solutions, Ltd., Surrey, U.K.).

[3] = target: T2, Aurora C (Homo sapiens, UniProt Q9UQB9); test: Biochemical Aurora C kinase assay (LANCE Ultra TR-FRET); conditions: for AurC Selectivity: IC50 AurC/IC50 TTK (biochemical assays); for IC50: full-length Aurora C, 5 μM ATP
T2 construct: full-length Aurora C enzyme (Carna Biosciences, cat. no. 05-103); purchased Carna Biosciences 05-103
T2 sequence (Q9UQB9 1-309): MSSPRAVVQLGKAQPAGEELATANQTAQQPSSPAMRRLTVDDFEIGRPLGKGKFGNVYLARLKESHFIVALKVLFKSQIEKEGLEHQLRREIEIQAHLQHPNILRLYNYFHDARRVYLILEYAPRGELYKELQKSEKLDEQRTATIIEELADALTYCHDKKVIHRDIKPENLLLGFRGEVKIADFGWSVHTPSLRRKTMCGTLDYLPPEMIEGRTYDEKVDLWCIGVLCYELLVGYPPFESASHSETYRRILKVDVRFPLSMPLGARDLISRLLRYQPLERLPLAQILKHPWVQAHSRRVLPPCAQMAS
Protocol: To determine the inhibitory activity of the compounds on Aurora C, the LANCE® Ultra TR-FRET assay (Perkin Elmer) was used. […] After pre-incubation of 1 hour in the dark at room temperature, ULightTM-labeled PLK([MUT]) substrate peptide (Perkin Elmer, cat. no. TRF-0110) and ATP were added, to start the reaction. […] After 3 hours, the reaction was stopped by the addition of 5 μl 100 mM EDTA. […] Time-resolved fluorescence was measured on an Envision multilabel reader (Perkin Elmer, Waltham, Mass., USA). IC50 were calculated using XLfitTM5 software (ID Business Solutions, Ltd., Surrey, U.K.).

[4] = target: Polo-like kinase 1 (PLK1) (Homo sapiens, UniProt P53350); test: Biochemical Polo-like kinase 1 kinase assay (LANCE Ultra TR-FRET); conditions: for PLK1 Selectivity: IC50 PLK1/IC50 TTK (biochemical assays)
Protocol: To determine the inhibitory activity of the compounds on Polo-like kinase 1 (PLK1), the LANCE® Ultra TR-FRET assay (Perkin Elmer) was used. […] After 4 hours, the reaction was stopped by the addition of 5 μl 100 mM EDTA. […] Time-resolved fluorescence was measured on an Envision multilabel reader (Perkin Elmer, Waltham, Mass. USA). IC50 were calculated using XLfit™5 software (ID Business Solutions, Ltd., Surrey, U.K.).

[5] = tested on: HeLa-Matu cervical tumor cell; conditions: cited from earlier work
[6] = tested on: human cancer cell lines; conditions: Colombo et al.; read-out: IC50 proliferation of cancer cell lines from different tumor origin; cited from earlier work
[7] = tested on: A375; conditions: mouse xenograft model; cited from earlier work
[8] = tested on: A2780; conditions: mouse xenograft model; cited from earlier work
[9] = MOLT-4, worded 'TTK cellular assay', read-out: IC50 in the TTK cellular assay

Polo-like kinase 1 (PLK1), sequence (P53350 whole entry): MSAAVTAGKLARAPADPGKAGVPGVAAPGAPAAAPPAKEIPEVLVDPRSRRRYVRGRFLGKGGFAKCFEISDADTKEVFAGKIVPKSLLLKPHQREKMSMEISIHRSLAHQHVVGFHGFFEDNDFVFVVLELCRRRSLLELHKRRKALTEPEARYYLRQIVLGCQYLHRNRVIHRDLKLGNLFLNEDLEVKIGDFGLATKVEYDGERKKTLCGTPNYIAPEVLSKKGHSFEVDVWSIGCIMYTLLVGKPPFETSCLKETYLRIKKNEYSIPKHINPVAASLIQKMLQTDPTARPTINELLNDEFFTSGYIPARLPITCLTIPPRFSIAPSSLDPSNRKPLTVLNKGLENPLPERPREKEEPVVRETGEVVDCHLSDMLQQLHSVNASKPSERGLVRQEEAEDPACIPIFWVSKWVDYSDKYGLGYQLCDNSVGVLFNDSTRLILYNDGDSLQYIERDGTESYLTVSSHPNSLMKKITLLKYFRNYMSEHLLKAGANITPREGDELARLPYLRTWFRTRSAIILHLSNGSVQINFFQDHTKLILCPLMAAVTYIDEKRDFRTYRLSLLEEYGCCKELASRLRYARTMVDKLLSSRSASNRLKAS

| Structure (SMILES) | IC50 [1, 9] | AurA Selectivity [2] | IC50 [2] | AurC Selectivity [3] | IC50 [3] | IC50 [4] | PLK1 Selectivity [4] | IC50 ([1]; MOLT-4, read-out: IC50 in the TTK cellular assay) | Efficacy of paclitaxel in combination ([5]; HeLa-Matu mouse xenograft model, with paclitaxel) | HeLa-Matu cervical tumor cell growth ([5]; mouse xenograft model) | IC50 [6] | Tumor growth, A375 xenograft [7] | Tumor growth, A2780 xenograft [8] |
| --- | --- | --- | --- | --- | --- | --- | --- | --- | --- | --- | --- | --- | --- |
| COCCOCCOCCn1nc(C)c(NC(=O)c2ccn3c2CCc2cnc(Nc4ccc(N5CCNCC5)cc4OC)nc2-3)c1C [Example 156, N-[1-[2-[2-(2-methoxyethoxy)ethoxy]ethyl]-3,5-dimethyl-pyrazol-4-yl]-2-(2-methoxy-4-piperazin-1-yl-anilino)-5,6-dihydropyrimido[4,5-e]indolizine-7-carboxamide] | < 50 nM | >200 | ≥ 100 nM | >500 | ≥ 100 nM | ≥ 250 nM | >500 |  |  |  |  |  |  |
| CCNCC(=O)N1CCN(c2ccc(Nc3ncc4c(n3)-n3ccc(C(=O)Nc5c(C)nn(CCOCCOCCOC)c5C)c3CC4)c(OC)c2)CC1 [Example 157, 2-[4-[4-[2-(Ethylamino)acetyl]piperazin-1-yl]-2-methoxy-anilino]-N-[1-[2-[2-(2-methoxyethoxy)ethoxy]ethyl]-3,5-dimethyl-pyrazol-4-yl]-5,6-dihydropyrimido[4,5-e]indolizine-7-carboxamide] | < 50 nM | >200 | ≥ 100 nM | >500 | ≥ 100 nM | ≥ 250 nM | >500 |  |  |  |  |  |  |
| CCNCC(=O)N1CCN(c2ccc(Nc3ncc4c(n3)-n3ccc(C(=O)Nc5c(CC)nn(CCOCCOC)c5CC)c3CC4)c(OC)c2)CC1 [Example 158, N-[3,5-diethyl-1-[2-(2-methoxyethoxy)ethyl]pyrazol-4-yl]-2-[4-[4-[2-(ethylamino)acetyl]piperazin-1-yl]-2-methoxy-anilino]-5,6-dihydropyrimido[4,5-e]indolizine-7-carboxamide] | < 50 nM | >200 | ≥ 100 nM | >500 | ≥ 100 nM | ≥ 250 nM | >500 |  |  |  |  |  |  |
| CCc1nn(CCOCCOC)c(CC)c1NC(=O)c1ccn2c1CCc1cnc(Nc3ccc(N4CCN(C(=O)COC)CC4)cc3OC)nc1-2 [Example 159, N-[3,5-diethyl-1-[2-(2-methoxyethoxy)ethyl]pyrazol-4-yl]-2-[2-methoxy-4-[4-(2-methoxyacetyl)piperazin-1-yl]anilino]-5,6-dihydropyrimido[4,5-e]indolizine-7-carboxamide] | < 50 nM | >200 | ≥ 100 nM | >200 | ≥ 100 nM | ≥ 250 nM | >500 |  |  |  |  |  |  |
| COCCOCCOCCn1nc(C)c(NC(=O)c2ccn3c2CCc2cnc(Nc4ccc(-c5c(C)nn(C)c5C)cc4OC)nc2-3)c1C [Example 160, N-[1-[2-[2-(2-methoxyethoxy)ethoxy]ethyl]-3,5-dimethyl-pyrazol-4-yl]-2-[2-methoxy-4-(1,3,5-trimethylpyrazol-4-yl)anilino]-5,6-dihydropyrimido[4,5-e]indolizine-7-carboxamide] |  |  | ≥ 100 nM |  | ≥ 100 nM | ≥ 250 nM |  | < 50 nM |  |  |  |  |  |
| CC(C)CNc1nccn2c(-c3ccc(C(=O)NC4CC4)cc3)cnc12 [Mps-BAY2b] |  |  |  |  |  |  |  |  | increased the efficacy of paclitaxel | inhibit HeLa-Matu cervical tumor cell growth |  |  |  |
| CCc1cccc(CC)c1NC(=O)c1nn(C)c2c1CCc1cnc(Nc3ccc(C(=O)NC4CCN(C)CC4)cc3OC(F)(F)F)nc1-2 [NMS-P715] |  |  |  |  |  |  |  |  |  |  | ≥ 1000 nM | inhibited tumor growth | inhibited tumor growth |
